Test results published in patent publication US11951151B2, “Compositions comprising antimicrobial peptides” (University of Pittsburgh—Of the Commonwealth System of …, priority 2019, dated 2024).
“Also recorded” adds a separate entry of the source.

Legend:
[1] = test system: S. aureus SH1000 mature biofilms; assay: S. aureus biofilm implant in vitro killing assay (mature biofilm on Kirschner wire, CFU analysis); format: cell-based, Staphylococcus aureus; details: for time to achieve 99.9% reduction of biofilm CFU compared to untreated implant pieces: treated in MHB media
Description: (§1) Bacterial strains and culture. S. aureus SH1000 was used for in vitro assays and the PJI animal model. SH1000 was inoculated in Tryptic Soy Broth (TSB, Becton Dickinson and Company) overnight at 37° C. with shaking at 250 rpm. Strains were diluted in Mueller Hinton Broth (MHB; Bectin Dickinson and Company) to a final concentration of 0.5×10^6 CFU/ml using the 0.5 MacFarland Standard (GFS Chemicals) and an Infinite M200 Spectrophotometer (Tecan). WLBU-2 (PLG0206) was supplied by Peptilogics (San Jose, California). All experiments were performed at least in triplicate at three separate times with freshly inoculated cultures.
S. aureus biofilm implant in vitro killing assays. Implant material was prepared from 0.6 mm diameter stainless steel Kirschner wire (Synthes) and cut into 6 mm length, autoclaved, and plated in wells along with SH1000 and all clinical strains at 1×10^6 CFU/ml. After plating, fresh MHB media was exchanged at 24 hours. At 48 hours, wire with mature biofilms were either placed into fresh MHB with either cefazolin or WLBU-2. Biofilms were treated with cefazolin at 0.13, 0.25, 0.5, and 1 mg/ml or WLBU-2 at 62, 125, 250, and 500 μg/ml. Cefazolin treated biofilm were removed 2, 6, and 24 hours after drug addition, WLBU-2 treated biofilm were removed 5 min, 20 min, 60 min, and 2 hours after drug addition. After treatment, Kirschner wires were placed in 1 ml of 1% Tween 20 and sonicated for 10 minutes. Sonicate was serially diluted and plated on TSA II with 5% sheep blood CS100 plates blood agar for colony forming unit (CFU) analysis. For pH analysis, prior to WLBU-2 addition, PBS was adjusted to more acidic pH using hydrochloric acid and more alkaline pH using ammonium hydroxide. Infected implant pieces were tested with WLBU-2 at both 0.5 and 1.0 μg/ml in PBS adjusted to pH of 6.5, 6.8, 7.0, 7.2, 7.4, and 8.0. Biofilm implant pieces were treated at very early time points of 2.5-20 minutes, then CFU analysis was performed.
as §1, with “Becton” for “Bectin”
S. aureus biofilm implant in vitro killing assays. Implant material was prepared from 0.6 mm diameter stainless steel Kirschner wire (Synthes) and cut into 6 mm length, autoclaved, and plated in wells along with SH1000 and all clinical strains at 1×10^6 CFU/ml. After plating, fresh MHB media was exchanged at 24 hours. At 48 hours, wire with mature biofilms were either placed into fresh MHB, normal saline, lactated ringers, or dPBS with fold dilutions of WLBU-2 at 62, 125, 250, 500, and 1000 μg/ml. dPBS solutions were prepared using any combination of the salt buffers listed in Table 3, dissolved in sterile, deionized water. After treatment, Kirschner wires were placed in 1 ml of 1% Tween 20 in dPBS and sonicated for 10 minutes. Sonicate was serially diluted and plated on TSA II with 5% sheep blood CS100 plates blood agar for colony forming unit (CFU) analysis. For pH analysis, prior to WLBU-2 addition, dPBS was adjusted to more acidic pH using hydrochloric acid and more alkaline pH using ammonium hydroxide. Infected implant pieces were tested with WLBU-2 at both 0.5 and 1.0 mg/ml in PBS adjusted to pH of 6.5, 6.8, 7.0, 7.2, 7.4, and 8.0. For ionic strength analysis, dPBS was adjusted to hypertonic conditions by addition of NaCl to dPBS (0.3 M) and hypotonic conditions by addition of deionized water to dPBS (0.08 M). […]

[2] = test system: S. aureus (strain: SH1000); assay: Rabbit PJI model, I&D with PLG0206 and/or systemic cefazolin, implant and tibia CFU up to Day 28; format: in vivo, Staphylococcus aureus
Description: (§2) A PJI New Zealand White Rabbit Animal model was used. A 3D printed tibia titanium implant was placed in the knee, and inoculated with S. aureus (strain: SH1000, inoculation density 2×10^6) after closure of the arthrotomy.
(§3) The rabbit is anesthetized with ketamine 40 mg/kg and xylazine 2 mg/kg during surgery. A bone tunnel in the tibial canal is created using a drill with a 1.2 mm or 1.6 mm tungsten carbide drill bit. The bone tunnel is then dried and treated to simulate acute human PJI following primary arthroplasty. A 3D printed titanium implant will then be placed in the bone tunnel and the wound closed. Prior to closure of the superficial skin layer, 0.1 mL of 2×10^6 planktonic bacteria (S. aureus; strain: SH1000; CFU/rabbit) in saline is injected into the joint space. A closure is performed, and a biofilm is allowed to become established over 2 days.
At 2 days post infection I&D will be performed on the infected joint and treatments will begin. Animals will receive treatment with an I&D alone, I&D with PLG0206, systemic treatment with cefazolin, or both PLG0206 and cefazolin When an animal dies or is sick and needs to be euthanized, the implant and a part of the tibia will be collected post mortem and bacterial burden will be determined by CFU. All surviving animals will be euthanized on Day 28 and the implant and tibia will be collected post mortem for CFU analysis.

[3] = test system: S. aureus SH1000 biofilm on PJI implant; assay: Periprosthetic Joint Infection Murine Washout Model (implant retrieved from mice, washed with peptide, CFU analysis); format: in vivo, Staphylococcus aureus; details: mouse
Excerpt: Periprosthetic Joint Infection Murine Washout Model. Twelve-week-old […] female mice (Jackson) were used for all experiments. Mice were anesthetized by 2% isoflurane, hair was removed from leg and treated with betadine. With a scalpel, a medial parapatellar incision was made, and lateral displacement of the quadriceps-patellar complex allowed for visualization of the femoral intercondylar notch. With a 25-gauge needle, the femoral intramedullary canal was manually reamed. Mature S. aureus biofilm previously established on a 0.6 mm wide/6 mm long Kirschner wire (Synthes) was inserted into the reamed canal, and sutured closed. 48 hours later, mice were euthanized and the infected Kirschner wire implant were extracted, placed in WLBU-2 at 1.0 mg/ml in PBS previously pH adjusted to 6.5, 7.0, 7.2, or 7.4 for 10 minutes, and then placed 1% Tween 20 on ice. Implants were sonicated for 10 minutes. Samples were serially diluted and plated on TSA II with 5% sheep blood CS100 plates for CFU analysis.

[4] = test system: S. aureus (strain: SH1000); assay: Rabbit periprosthetic joint infection (PJI) model, ex vivo or in vivo treatment at I&D 2 days post infection, implant CFU; design: species or system Staphylococcus aureus
Description: as §2, §3
After 48 hours, animals were sacrificed and the implants were exposed to either topical cefazolin (10 mg/kg) or topical WLBU2 (1 mg/mL) in PBS (pH 7.4). Implants were sonicated 10 minutes, and colony forming unit (CFU) assay was performed on blood agar plates to quantify bacterial burden.
At 2 days post infection irrigation and debridement (I&D) was performed on the infected joint. Treatment with PLG0206 was administered at 1 mg/mL concentration (ex vivo or in vivo) and 0.5 mg/mL concentration (in vivo) at 15 (ex vivo and in vivo), and 7.5 minutes (in vivo) exposure times. For the ex vivo administration, the implant was removed and exposed to PLG0206 solution in a tube for 15 minutes. For the in vivo administration, irrigation and debridement on the joint was performed followed by PLG0206 treatment. The animals were euthanized after treatment, and the implants removed post mortem.

Question: With `Cc1nnc(SCC2=C(C(=O)O)N3C(=O)[C@@H](NC(=O)Cn4cnnn4)[C@H]3SC2)s1` [Cefazolin, reference compound] as the compound, how does the “decrease in biofilm CFU over 6 hours” value ([1]; MHB, 6 hours) read?
Answer: only a modest decrease

Question: What about the “time to achieve 99.9% reduction of biofilm CFU compared to untreated implant pieces” value [1] of the same compound?
Answer: over 24 hours

Question: What about the “reduction in bacterial burden” value ([2]; cefazolin treatment alone (Group 2)) of the same compound?
Answer: 1.5 log

Question: For “WLBU-2: RRWVRRVRRVWRRVVRVVRRWVRR (SEQ ID NO: 10); synthetically engineered cationic antimicrobial peptide (RRWVRRVRRVWRRVVRVVRRWVRR; Antimicrobial peptide WLBU-2)”, which “contact time needed to achieve a three-log reduction in biofilm CFU” value ([1]; 1.0 mg/ml in 6.5 pH PBS) is on record?
Answer: 15 minutes

Question: What about the “contact time needed to achieve a three-log reduction in biofilm CFU” value ([1]; 1.0 mg/ml in 8.0 pH PBS) of the same compound?
Answer: 2.5 minutes

Question: What about the “biofilm CFU after treatment (sterile samples)” value ([1]; PBS pH 7.4) of the same compound?
Answer: 0 CFU

Question: And the “biofilm CFU after treatment (sterile samples)” value ([1]; PBS pH 8.0)?
Answer: 0 CFU

Question: What about the “reduction in biofilm CFU” value ([1]; dPBS at pH 7.5, 10 minutes, 62, 125, 250, 500 and 1000 μg/mL) of the same compound?
Answer: three-log reduction or greater; also recorded: three-log reduction

Question: And the “reduction in bacterial biofilm” value ([1]; dPBS, pH 7.0, 62-1000 μg/ml, 10 minutes)?
Answer: over 99.9%

Question: What about the “reduction in biofilm CFU” value ([1]; hypertonic dPBS at pH 7.5, 10 minutes) of the same compound?
Answer: a three-log reduction was not achieved

Question: And the “biofilm CFU after treatment” value ([1]; hypotonic dPBS at pH 7.5, 10 minutes, 62, 125, 250, 500 and 1000 μg/mL)?
Answer: 0 CFU

Question: And the “time needed to obtain 0 CFU sterile samples, compared to hypertonic dPBS” value ([1]; hypotonic dPBS of 0.08 M)?
Answer: less time needed

Question: What about the “time needed to obtain a three-log reduction, compared to hypertonic dPBS” value ([1]; hypotonic dPBS of 0.08 M) of the same compound?
Answer: less time needed

Question: What about the “time to achieve a 99.9% reduction in biofilm CFU” value ([1]; in buffered PBS, doses of 62-1000 μg/ml) of the same compound?
Answer: ≤ 20 min

Question: What about the “reduction in bacterial biofilm” value ([1]; lactated ringers, pH 6.5, 62-1000 μg/ml, 10 minutes) of the same compound?
Answer: over 99.9%

Question: What about the “reduction in bacterial biofilm CFUs” value ([1]; normal saline, measured pH of 5.8, 62-1000 μg/ml, 10 minutes) of the same compound?
Answer: ~99%

Question: What about the “contact time needed to obtain above a 99.9% clearance of biofilms” value ([1]; pH of the washout solution above 7.0) of the same compound?
Answer: under 5 minutes

Question: And the “time to achieve 99.9% reduction of biofilm CFU compared to untreated implant pieces” value [1]?
Answer: under 2 hours

Question: And the “reduction in bacterial burden” value ([2]; 1 mg/ml PLG0206 in combination with cefazolin (Group 4))?
Answer: 2.5 log

Question: What about the “bacterial burden in comparison to control” value ([2]; 1 mg/ml treatment alone (Group 3)) of the same compound?
Answer: not significant

Question: What about the “biofilm CFU on PJI implant compared to No Drug group” value ([3]; 1.0 mg/ml in PBS pH 7.0, 10 minutes) of the same compound?
Answer: significant reduction

Question: What about the “biofilm CFU on PJI implant compared to No Drug group” value ([3]; 1.0 mg/ml in PBS pH 7.2, 10 minutes) of the same compound?
Answer: significant reduction

Question: And the “biofilm CFU on PJI implant compared to No Drug group” value ([3]; 1.0 mg/ml in PBS pH 7.4, 10 minutes)?
Answer: significant reduction

Question: What about the “biofilm CFU on PJI implant, washout with 7.4 pH compared to washout with 6.5 pH” value ([3]; 1.0 mg/ml in PBS, 10 minutes) of the same compound?
Answer: significantly less; also recorded: significant reduction

Question: What about the “reduction in bacterial burden in comparison to control” value ([4]; ex vivo treatment, 1 mg/mL, 15 minutes) of the same compound?
Answer: greater than 2 log

Question: What about the “reduction in bacterial burden, 1 mg/ml for 15 minutes in comparison to 0.5 mg/ml” value ([4]; in vivo study) of the same compound?
Answer: significantly greater reduction

Question: What about the “reduction in bacterial burden in comparison to control” value ([4]; in vivo treatment after I&D) of the same compound?
Answer: greater than 2 log
